Assay results taken from US6855710B2, “Substituted indolines with an inhibitory effect on various kinases and complexes of CDKs” (Boehringer Ingelheim Pharma KG, priority 1998, dated 2005).

Q: For `CCOC(=O)CN(c1ccc(N/C(=C2\C(=O)Nc3ccc([N+](=O)[O-])cc32)c2ccccc2)cc1)S(C)(=O)=O` [Example 198, (Z)-3-{-[4-(N-ethoxycarbonylmethyl-N-methylsulphonyl-amino)-phenylamino]-1-phenyl-methylidene}-5-nitro-2-indolinone], which melting point is on record?
A: Its melting point is 236 to 238 °C.

Q: Which melting point does the source give for `CCS(=O)(=O)N(CC(=O)O)c1ccc(N/C(=C2\C(=O)Nc3ccccc32)c2ccccc2)cc1` [Example 298, (Z)-3-{1-[4-(N-carboxymethyl-N-ethylsulphonyl-amino)-phenylamino]-1-phenyl-methylidene}-2-indolinone] here?
A: The melting point was 240 to 242 °C.

Q: For `CN(C(=O)CN1CCOCC1)c1ccc(N/C(=C2\C(=O)Nc3ccc([N+](=O)[O-])cc32)c2ccccc2)cc1` [Example 102, (Z)-3-{1-[4-(N-morpholinomethylcarbonyl-N-methyl-amino)-phenylamino]-1-phenyl-methylidene}-5-nitro-2-indolinone], which melting point is on record?
A: The melting point was 293 to 295 °C.

Q: Which melting point does the source give for `CC(=O)N(CCCN(C)C)c1ccc(N/C(=C2\C(=O)Nc3ccccc32)c2ccccc2)cc1` [Example 344, (Z)-3-{1-[4-(N-(3-dimethylaminopropyl)-N-acetyl-amino)-phenylamino]-1-phenyl-methylidene}-2-indolinone] here?
A: The melting point was 227 °C.

Q: For `CN(C)C(=O)C1CCN(CCc2ccc(N/C(=C3\C(=O)Nc4ccc([N+](=O)[O-])cc43)c3ccccc3)cc2)CC1` [Example 264, (Z)-3-{1-[4-(2-(4-dimethylaminocarbonyl-piperidino)-ethyl)-phenylamino]-1-phenyl-methylidene}-5-nitro-2-indolinone], which melting point is on record?
A: The melting point was 288 °C (dec.).

Q: Which melting point does the source give for `COC(=O)Cc1ccc(N/C(=C2\C(=O)Nc3ccc([N+](=O)[O-])cc32)c2ccccc2)cc1` [Example 180, (Z)-3-[1-(4-methoxycarbonylmethyl-phenylamino)-1-phenyl-methylidene]-5-nitro-2-indolinone] here?
A: The melting point was 238 to 240 °C.

Q: For `O=C1Nc2ccc([N+](=O)[O-])cc2/C1=C(/Nc1ccc(CCN2CCCCC2)cc1)c1ccccc1` [Example 132, (Z)-3-{1-[4-(2-piperidinoethyl)-phenylamino]-1-phenyl-methylidene}-5-nitro-2-indolinone], which melting point is on record?
A: Its melting point is 236 to 237 °C.

Q: Which melting point does the source give for `CN(C(=O)CN1CCCC1)c1ccc(N/C(=C2\C(=O)Nc3ccccc32)c2ccccc2)cc1` [Example 369, (Z)-3-{1-[4-(N-(pyrrolidin-1-ylmethylcarbonyl)-N-methyl-amino)-phenylamino]-1-phenyl-methylidene}-2-indolinone] here?
A: The melting point was 253 to 255 °C.

Q: For `CN(Cc1ccc(N/C(=C2\C(=O)Nc3ccc([N+](=O)[O-])cc32)c2ccccc2)cc1)c1ccccn1` [Example 235, (Z)-3-{1-[4-(N-methyl-N-(2-pyridyl)-aminomethyl)-phenylamino]-1-phenyl-methylidene}-5-nitro-2-indolinone], which melting point is on record?
A: The melting point was 213 to 216 °C.

Q: For `Cc1cccc(N/C(=C2\C(=O)Nc3ccccc32)c2ccccc2)c1` [Example 6, (Z)-3-[1-(3-methyl-phenylamino)-1-phenyl-methylidene]-2-indolinone], which melting point is on record?
A: Its melting point is 218 to 220 °C.

Q: Which melting point does the source give for `CS(=O)(=O)Nc1ccc(N/C(=C2\C(=O)Nc3ccc([N+](=O)[O-])cc32)c2ccccc2)cc1` [Example 196, (Z)-3-[(4-methylsulphonylamino-phenylamino)-1-phenyl-methylidene]-5-nitro-2-indolinone] here?
A: Its melting point is 344 to 346 °C.

Q: Which melting point does the source give for `O=C1Nc2ccc([N+](=O)[O-])cc2/C1=C(/Nc1ccc(CN2CCCCCC2)cc1)c1ccccc1` [Example 119, (Z)-3-[1-(4-hexamethyleneiminomethyl-phenylamino)-1-phenyl-methylidene]-5-nitro-2-indolinone] here?
A: Its melting point is 220 °C.

Q: With `O=C1Nc2ccc([N+](=O)[O-])cc2/C1=C(/Nc1ccc(CN2CCC(CO)CC2)cc1)c1ccccc1` [Example 250, (Z)-3-{1-[4-(4-hydroxymethyl-piperidinomethyl)-phenylamino]-1-phenyl-methylidene}-5-nitro-2-indolinone] as the compound, how does the melting point read?
A: Its melting point is 227 to 228 °C.

Q: For `CS(=O)(=O)N(CC(N)=O)c1ccc(N/C(=C2\C(=O)Nc3ccccc32)c2ccccc2)cc1` [Example 191, (Z)-3-{1-[4-(N-aminocarbonylmethyl-N-methylsulphonyl-amino)-phenylamino]-1-phenyl-methylidene}-2-indolinone], which melting point is on record?
A: The melting point was 276 to 278 °C.

Q: Which melting point does the source give for `CN(C)CCN(C)C(=O)CN(c1ccc(N/C(=C2\C(=O)Nc3ccc([N+](=O)[O-])cc32)c2ccccc2)cc1)S(C)(=O)=O` [Example 294, (Z)-3-{1-[4-(N—((N-(2-dimethylaminoethyl)-N-methyl-amino)-carbonylmethyl)-N-methylsulphonyl-amino)-phenylamino]-1-phenyl-methylidene}-5-nitro-2-indolinone] here?
A: Its melting point is 138 to 140 °C.

Q: With `CCOC(=O)CNS(=O)(=O)c1ccc(N/C(=C2\C(=O)Nc3ccccc32)c2ccccc2)cc1` [Example 406, (Z)-3-{1-[4-(ethoxycarbonylmethylaminosulphonyl)-phenylamino]-1-phenyl-methylidene}-2-indolinone] as the compound, how does the melting point read?
A: The melting point was 196 to 199 °C.

Q: For `CN(C)CCN(C)C(=O)c1ccc(N/C(=C2\C(=O)Nc3ccccc32)c2ccccc2)cc1` [Example 391, (Z)-3-{1-[4-(N-(2-dimethylaminoethyl)-N-methyl-aminocarbonyl)-phenylamino]-1-phenyl-methylidene}-2-indolinone], which melting point is on record?
A: Its melting point is 181 to 183 °C.

Q: For `COC(=O)C(N)Cc1ccc(N/C(=C2\C(=O)Nc3ccc([N+](=O)[O-])cc32)c2ccccc2)cc1.Cl` (stereo not drawn), which melting point is on record?
A: The melting point was 215 °C (dec.).

Q: For `CC(C)C(=O)N(CCN(C)C)c1ccc(N/C(=C2\C(=O)Nc3ccc([N+](=O)[O-])cc32)c2ccccc2)cc1` [Example 330, (Z)-3-{1-[4-(N-(2-dimethylaminoethyl)-N-isopropylcarbonyl-amino)-phenylamino]-1-phenyl-methylidene}-5-nitro-2-indolinone], which melting point is on record?
A: The melting point was 296 to 298 °C.

Q: Which melting point does the source give for `CN(C(=O)C(F)(F)F)c1cccc(N/C(=C2\C(=O)Nc3ccccc32)c2ccccc2)c1` [Example 36, (Z)-3-{1-[3-(N-trifluoroacetyl-N-methyl-amino)-phenylamino]-1-phenyl-methylidene}-2-indolinone] here?
A: Its melting point is 224 to 227 °C.

Q: With `CCS(=O)(=O)N(CCN(C)C)c1ccc(N/C(=C2\C(=O)Nc3ccccc32)c2ccccc2)cc1` [Example 307, (Z)-3-{1-[4-(N-(2-dimethylaminoethyl)-N-ethylsulphonyl-amino)-phenylamino]-1-phenyl-methylidene}-2-indolinone] as the compound, how does the melting point read?
A: Its melting point is 245 °C.

Q: Which melting point does the source give for `N=C(N)c1cccc(N/C(=C2\C(=O)Nc3ccccc32)c2ccccc2)c1` [Example 64, (Z)-3-[1-(3-amidinophenylamino)-1-phenyl-methylidene]-2-indolinone] here?
A: Its melting point is 235 to 237 °C.

Q: For `CC(=O)O.N=C(N)c1ccc(N/C(=C2\C(=O)Nc3ccccc32)c2ccccc2)cc1` [Example 62, (Z)-3-{1-[N-(4-amidinophenyl)-amino]-1-phenyl-methylidene}-2-indolinone-hydroacetate], which melting point is on record?
A: Its melting point is > 260 °C (dec.).

Q: With `O=C(CN1CCOCC1)Nc1ccc(N/C(=C2\C(=O)Nc3ccccc32)c2ccccc2)cc1` [Example 43, (Z)-3-[1-(4-morpholinomethylcarbonylamino-phenylamino)-1-phenyl-methylidene]-2-indolinone] as the compound, how does the melting point read?
A: The melting point was 246 to 248 °C.
